Results published in patent publication US9957230B2, “Synergistic compositions” (Cadila Healthcare Limited, priority 2013, dated 2018).
Where a name gives a salt, the structure may show the parent alone.

Legend:
[1] = tested on: high fat high cholesterol fed Syrian golden hamster; assay: Lipid lowering effects with Rosuvastatin Calcium in HF-HC fructose diet Syrian golden hamsters (study III); type: in vivo; conditions: Compound (Ia) 3 mg/kg
Source text: The in-vivo efficacy was done in high fat high cholesterol fed Syrian golden hamster. It is an excellent model to investigate hepatic assembly and secretion of lipoprotein since its lipoprotein metabolism closely resembles that of humans as they have cholesteryl ester transfer protein (CETP) as like human. Feeding high fat high cholesterol diet to Syrian golden hamster causes hypercholesterolemia and hypertriglyceridemia which causes an increase in LDL levels and decrease in HDL-C/TC ratio.
In this experiment, 21 Syrian golden hamsters which were kept on high fat-high cholesterol (HF-HC) fructose diet were divided into 3 treatment groups and one group was on normal diet control which was NIN (National Institute of Nutrition, NIN diet) control, the treatment given was as per Table no. 1. NIN control and HF-HC fructose diet vehicle control groups were treated with vehicle (10% Polyethylene glycol (PEG) 400+90% of 0.5% methyl cellulose) and other three groups with treatment mentioned in Table no. 13. The treatment was given oral gavages once daily for 7 days.
Calculations of the % change in LDL-C levels, HDL-C and LDL-C/HDL-C ratio (Vs HF-HC fructose diet control) were performed using MS Excel.

db/db mice = assay: Antidiabetic activity with Vildagliptin and Metformin in db/db mice (study IV): non-fasting serum glucose; type: in vivo; conditions: Vildagliptin 1 mg/kg
Source text: The in-vivo efficacy for antidiabetic activity was done female db/db mice of 10-15 weeks of age.
1. […] 17. The treatment was given oral gavages once daily for 14 days.
The OGTT procedure followed is as given below—

[2] = HF-HC fructose diet hamsters, 7 days, Rosuvastatin calcium 0.3 mg/kg

Compound: CCO[C@@H](Cc1ccc(OCCn2c(C)ccc2-c2ccc(SC)cc2)cc1)C(=O)O [Compound (Ia), Benzenepropanoic acid, α-ethoxy-4-[2-[2-methyl-5-[4-(methylthio)phenyl]-1H -pyrrol-1-yl]ethoxy]-, magnesium salt]
- reduction in LDL-C [1, 2]: 9.9%
- reduction in LDL-C/HDL-C ratio, atherogenic index [1, 2]: 4.9%
- Serum LDL-C (mg/dl) Day 0 ([1]; Table 14, Day 0 (pretreatment), HF-HC fructose diet hamsters, Rosuvastatin calcium 0.3 mg/kg oral once daily 7 days): 114.8 mg/dL
- LDL-C % Change vs Day 0 ([1]; Table 14, Day 7, Rosuvastatin calcium 0.3 mg/kg): 9.2%
- Serum LDL-C (mg/dl) Day 7 ([1]; Table 14, Day 7, HF-HC fructose diet hamsters, Rosuvastatin calcium 0.3 mg/kg oral once daily 7 days): 123.7 mg/dL
- % Change vs HF-HC Fructose Control ([1]; Table 14, LDL-C, Day 7, Rosuvastatin calcium 0.3 mg/kg): −9.9%
- Serum HDL-C (mg/dl) Day 0 ([1]; Table 15, Day 0 (pretreatment), HF-HC fructose diet hamsters, Rosuvastatin calcium 0.3 mg/kg oral once daily 7 days): 101.8 mg/dL
- HDL-C % Change vs Day 0 ([1]; Table 15, Day 7, Rosuvastatin calcium 0.3 mg/kg): 9.8%
- Serum HDL-C (mg/dl) Day 7 ([1]; Table 15, Day 7, HF-HC fructose diet hamsters, Rosuvastatin calcium 0.3 mg/kg oral once daily 7 days): 111.5 mg/dL
- Serum LDL-C/HDL-C Ratio Day 0 ([1]; Table 16, Day 0 (pretreatment), HF-HC fructose diet hamsters, Rosuvastatin calcium 0.3 mg/kg): 1.13
- LDL/HDL % Change Vs Day 0 ([1]; Table 16, Day 7, Rosuvastatin calcium 0.3 mg/kg): −0.3%
- Serum LDL-C/HDL-C Ratio Day 7 ([1]; Table 16, Day 7, HF-HC fructose diet hamsters, Rosuvastatin calcium 0.3 mg/kg): 1.09
- % Change vs HF-HC Fructose Control ([1]; Table 16, LDL-C/HDL-C ratio, Day 7, Rosuvastatin calcium 0.3 mg/kg): −4.9%
- Serum Glucose (mg/dl) Day 0 (db/db mice; Table 18, Day 0 (pretreatment), female db/db mice, Compound Ia 0.1 mg/kg, Metformin 100 mg/kg p.o. once daily): 375.4 mg/dL
- Serum Glucose (mg/dl) Day 12 (db/db mice; Table 18, Day 12, one hour after dose, non-fasting, Compound Ia 0.1 mg/kg, Metformin 100 mg/kg p.o. once daily): 209.0 mg/dL
- % Change Vs control (db/db mice; Table 18, serum glucose day 12 vs vehicle control, Compound Ia 0.1 mg/kg, Metformin 100 mg/kg): −34.3%
- % Change Day 12 vs Day 0 (db/db mice; Table 18, serum glucose, Compound Ia 0.1 mg/kg, Metformin 100 mg/kg): −43.8%
- reduction in serum glucose (db/db mice; female db/db mice, Compound (Ia) 0.1 mg/kg, Metformin 100 mg/kg): 34.3%
